Data taken from patent US20060122194A1, “Tablet comprising efletirizine and pseudoephedrine” (UCB Farchim S.A., priority 2002, published 2006).

Legend:
[1] = stability of the tablet / of efletirizine with pseudoephedrine; assay type: physicochemical; conditions: efletirizine and pseudoephedrine formulated together in the same segment
[2] = target: histamine H1-receptor (Homo sapiens, UniProt P35367); conditions: in vitro; cited from earlier work
histamine H1-receptor, sequence (P35367 whole entry, species assumed): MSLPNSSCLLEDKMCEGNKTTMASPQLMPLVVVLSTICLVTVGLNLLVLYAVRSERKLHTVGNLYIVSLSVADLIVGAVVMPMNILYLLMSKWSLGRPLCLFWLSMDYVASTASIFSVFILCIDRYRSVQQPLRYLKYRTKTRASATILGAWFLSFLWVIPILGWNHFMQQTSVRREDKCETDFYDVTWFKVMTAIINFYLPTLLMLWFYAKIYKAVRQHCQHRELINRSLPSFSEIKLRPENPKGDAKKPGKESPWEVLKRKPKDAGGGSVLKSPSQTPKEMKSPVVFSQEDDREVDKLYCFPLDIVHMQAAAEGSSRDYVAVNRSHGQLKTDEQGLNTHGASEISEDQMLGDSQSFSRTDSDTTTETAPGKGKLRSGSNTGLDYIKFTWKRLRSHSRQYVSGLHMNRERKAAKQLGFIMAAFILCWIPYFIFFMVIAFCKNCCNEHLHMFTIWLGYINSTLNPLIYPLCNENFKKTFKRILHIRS

degradation of efletirizine [1]: a degradation of efletirizine appeared
Compound: O=C(O)COCCN1CCN(C(c2ccc(F)cc2)c2ccc(F)cc2)CC1 [Efletirizine, 2-{2-[4-[bis(4-fluorophenyl)methyl)-1-piperazinyl]ethoxy}acetic acid]
affinity and selectivity for H1-receptors [2]: high affinity and selectivity
